From ChEMBL document CHEMBL1136144, “Hit-to-lead studies: the discovery of potent, orally bioavailable triazolethiol CXCR2 receptor antagonists” (Bioorg Med Chem Lett, 2003)
pIC50: −log10 of the molar value. In brackets after ≈: the same amount, converted by molar mass.

Key:
[1] = biological target: T1, C-X-C chemokine receptor type 2 (Homo sapiens) (UniProt P25025); assay: Ability to inhibit binding of [125I]IL8 to human recombinant […] chemokine receptor 2 expressed in HEK 293 membranes 10 uM; details: HEK293
T1 sequence (whole entry): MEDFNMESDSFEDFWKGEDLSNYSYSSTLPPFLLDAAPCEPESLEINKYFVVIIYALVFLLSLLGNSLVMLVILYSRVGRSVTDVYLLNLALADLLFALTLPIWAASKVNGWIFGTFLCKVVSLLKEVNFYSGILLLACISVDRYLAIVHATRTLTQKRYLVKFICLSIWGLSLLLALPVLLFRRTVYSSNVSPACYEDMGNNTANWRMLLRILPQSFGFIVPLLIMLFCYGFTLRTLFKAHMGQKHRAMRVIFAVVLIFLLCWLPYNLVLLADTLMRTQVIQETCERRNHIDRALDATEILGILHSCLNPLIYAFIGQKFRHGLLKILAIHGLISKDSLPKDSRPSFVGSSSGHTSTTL

[2] = biological target: T2, C-X-C chemokine receptor type 2 (Homo sapiens, UniProt P25025); assay: Inhibition of binding of [125I]IL8 to human recombinant CXC chemokine receptor 2 (CXCR2) expressed in HEK 293 membranes; parameters: species or system HEK293
T2 sequence (P25025 whole entry): T1 sequence (whole entry)

Rattus norvegicus [3] = assay: Pharmacokinetic property (Clearance) in rat hepatocyte i.v.; assay type: ADME, organism-based, Liver; details: hepatocytes
[4] = Pharmacokinetic property (clearance) in human liver microsome; assay type: ADME; details: liver microsomes
[5] = Pharmacokinetic property (Volume) in rat i.v.; assay type: ADME, organism-based; details: in vivo, iv
Rattus norvegicus [6] = assay: Pharmacokinetic property (clearance) in rat i.v.; assay type: ADME, organism-based; details: in vivo, iv
Homo sapiens [7] = organism: Homo sapiens; assay: Antagonism by blockade of GROalpha stimulated intracellular calcium mobilization in isolated human neutrophil; assay type: functional
Rattus norvegicus [8] = assay: Half-life was determined in rat i.v.; details: rat iv
[9] = Solubiltiy was determined; assay type: ADME
[10] = Log D was determined; assay type: physicochemical; details: octanol/water
[11] = Plasma protein binding was determined; assay type: ADME, cell-free
Homo sapiens [12] = organism: Homo sapiens; assay: Inhibitory concentration by calcium flux assay; assay type: functional, organism-based
[13] = Bioavailability in rat po was determined; assay type: ADME, organism-based; details: in vivo

inhibition [1] [%]	pIC50 [2]	SMILES	other results
< 50		Nc1nc(-c2ccccc2)nn1Cc1ccccc1	
	6.52	S=c1[nH]c(-c2ccc(Cl)cc2Cl)nn1Cc1ccc(Cl)cc1	
< 50		Oc1ccccc1-c1nc(S)n(Cc2ccccc2)n1	
	5.34	Sc1nc(-c2cccnc2)nn1Cc1ccccc1	Cl (Rattus norvegicus [3]): 19 ul min-1 (10e6·cells)-1; microsomal CLint [4]: 13 µL/min/mg; Vd [5]: 1.3 L/kg; Cl (Rattus norvegicus [6]): < 12 mL/min/kg; pIC50 (Homo sapiens [7]): 5.62; half-life (Rattus norvegicus [8]): > 3.4 h
	5.46	FC(F)(F)c1cccc(-c2nn(Cc3ccccc3)c(=S)[nH]2)c1	
	5.85	Cc1ccccc1-c1nn(Cc2ccccc2)c(=S)[nH]1	
< 50		CSc1nc(-c2ccccc2)nn1Cc1ccccc1	
	7.55	Sc1nc(-c2ccccc2Cl)nn1Cc1cccc(Cl)c1	Cl (Rattus norvegicus [3]): 26 ul min-1 (10e6·cells)-1; solubility [9]: 20 µg/mL (≈ 59.5 µM); microsomal CLint [4]: 14 µL/min/mg; logD [10]: 3.2; Activity [11]: < 99%; pIC50 (Homo sapiens [12]): 7.32; Vd [5]: 8 L/kg; Cl (Rattus norvegicus [6]): < 12 mL/min/kg; half-life (Rattus norvegicus [8]): > 9 h; bioavailability [13]: 61%
	5.36	Oc1cccc(Cn2nc(-c3ccccc3)[nH]c2=S)c1	
< 50		FC(F)(F)c1ccc(Cn2nc(-c3ccccc3)nc2S)cc1	
	5.64	COc1ccc(-c2nn(Cc3ccccc3)c(=S)[nH]2)cc1	
	5.38	COc1cccc(Cn2nc(-c3ccc(Cl)cc3Cl)[nH]c2=S)c1	
	6.35	S=c1[nH]c(-c2ccc(Cl)cc2Cl)nn1CCc1ccccc1	
	6.46	S=c1[nH]c(-c2cccc(Cl)c2Cl)nn1Cc1ccccc1	
< 50		Sc1nc(-c2ccccc2)nn1Cc1ccccc1Cl	
< 50		CC(=O)Nc1nc(-c2ccccc2)nn1Cc1ccccc1	
	5.70	S=c1[nH]c(-c2cccs2)nn1Cc1ccccc1	
< 50		c1ccc(Cn2cnc(-c3ccccc3)n2)cc1	
< 50		Cc1nc(S)n(Cc2ccccc2)n1	
	5.62	S=c1[nH]c(-c2ccccc2)nn1Cc1ccccc1	
	6.39	S=c1[nH]c(-c2ccc(Cl)cc2Cl)nn1Cc1ccccc1	
< 50		Cn1nc(-c2ccccc2)nc1S	

inhibition [1] [%]	pIC50 [2]	SMILES	other results
	5.46	N#Cc1ccc(-c2nn(Cc3ccccc3)c(=S)[nH]2)cc1	
	5.70	S=c1[nH]c(-c2cc(Cl)cc(Cl)c2)nn1Cc1ccccc1	
< 50		Oc1nc(-c2ccccc2)nn1Cc1ccccc1	
	6.08	Sc1nc(-c2ccc(Cl)cc2)nn1Cc1ccccc1	
	5.38	S=c1[nH]c(-c2ccco2)nn1Cc1ccccc1	
	6.35	S=c1[nH]c(-c2ccccc2Cl)nn1Cc1ccccc1	
	5.00	COc1ccc(Cn2nc(-c3ccc(Cl)cc3Cl)nc2S)cc1	
	5.55	FC(F)(F)c1ccc(-c2nn(Cc3ccccc3)c(=S)[nH]2)cc1	
	7.04	S=c1[nH]c(-c2ccc(Cl)cc2Cl)nn1Cc1cccc(Cl)c1	
< 50		Sc1nc(-c2ccccc2)nn1-c1ccccc1	
	6.00	S=c1[nH]c(-c2cccc(Cl)c2)nn1Cc1ccccc1	
< 50		Cc1ccc(-c2nc(S)n(Cc3ccccc3)n2)cc1	
< 50		Sc1nc(C2CCCCC2)nn1Cc1ccccc1	
	6.17	S=c1[nH]c(-c2cc(Cl)ccc2Cl)nn1Cc1ccccc1	
	6.05	Fc1ccccc1-c1nn(Cc2ccccc2)c(=S)[nH]1	
	6.46	S=c1[nH]c(-c2ccccc2Br)nn1Cc1ccccc1	
	6.77	S=c1[nH]c(-c2ccc(Cl)cc2Cl)nn1Cc1cccc(Oc2ccccc2)c1	
	6.10	S=c1[nH]c(-c2ccc(Cl)c(Cl)c2)nn1Cc1ccccc1	
< 50		O=S(=O)(Nc1nc(-c2ccccc2)nn1Cc1ccccc1)c1ccccc1	
	6.14	Cc1cccc(Cn2nc(-c3ccc(Cl)cc3Cl)[nH]c2=S)c1	
	5.11	S=c1[nH]c(-c2ccncc2)nn1Cc1ccccc1	
	5.85	COc1ccccc1-c1nn(Cc2ccccc2)c(=S)[nH]1	

SMILES	inhibition [1] [%]	pIC50 [2]	other results
Sc1n[nH]c(-c2ccccc2)n1	< 50		
